From patent US8877766B2, “Neuroprotective multifunctional antioxidants and their monofunctional analogs” (priority 2013, dated 2014)

Experiments:
[1] = system: SH-SY5Y neuroblastoma cells; assay: Superoxide assay, MitoSOX Red, xanthine oxidase generated superoxide; format: cell-based, human; conditions: xanthine oxidase 25 mU/mL
Procedure: The ability of the HK series of multifunctional and monofunctional antioxidant compounds to specifically reduce superoxide radicals in live cells was assessed in both SH-SY5Y neuroblastoma cells and ARPE-19 retinal pigmented epithelial cells. The production of superoxide by mitochondria was visualized with fluorescence microscopy using the MitoSOX™ Red reagent (Invitrogen Life Sciences, Grand Island, N.Y.), which permeates live cells, where it selectively targets mitochondria. It is rapidly oxidized by superoxide, but not by other reactive oxygen species (ROS) and reactive nitrogen species (RNS). The oxidized product is highly fluorescent upon binding to nucleic acid. […] The cell media was then removed from each well, and the wells were washed with PBS. Compounds (HK series and JHX series and antioxidant standards (Hydroquinone (HQ), Trolox (T), Vitamin E (VE), Vitamin C (VC)) dissolved in DMSO (10 μL) were then added to each well, along with fresh media (140 μL) without serum albumin (FBS). Superoxide dismutase (SOD, 500 μg/mL, 10 μL) was used as an additional control, and cells in all groups (controls, drug treated, and SOD treated groups) were exposed to the same amounts of DMSO. After addition, the cells were incubated at 37° C. under a 5% CO2 atmosphere for 1 hr. Xanthine oxidase (XO), was then added (25 mU/mL) to generate approximately 100 μM superoxide, and culture continued for an additional hour. The media was then again removed, and the cells were washed with PBS. Finally, the cells were stained with 100 μL of the MitoSOX Red reagent (5 μM), and 2 hr after further incubation, the fluorescence of each well was measured using fluorescent microplate reader at Ex/Em=510/580 nm.

[2] = system: SH-SY5Y neuroblastoma cells; assay: Cell viability study, MTS Cell Titer 96 Aqueous One Solution assay; conditions: 1 mM compound in 0.16% DMSO
Procedure: (§5) The in vitro cell viability studies were conducted as previously described using SH-SY5Y neuroblastoma cells (ATCC) and cultured according to ATCC procedures in 1:1 Eagles minimum essential medium with Earle's balanced salt solution and Ham's F12 (EMEM-F12) media containing (10% fetal bovine serum (FBS)) at 37° C. under a 5% CO2 atmosphere. Cell viability studies were conducted over a 24 hour period in 96-well plates using the Cell Titer 96® Aqueous One Solution Cell Proliferation Assay (MTS, Promega, Madison, Wis.) with 1 mM of each compound or clioquinol (PBT1) dissolved in 0.16% DMSO. […] This is a colorimetric method for determining the number of viable cells in proliferation or cytotoxicity assays where the One Solution contains MTS (3-(4,5-dimethylthiazol-2-yl)-5-(3-carboxymethoxyphenyl)-2-(4-sulfophenyl)-2H-tetrazolium), in the presence of phenazine methosulfate (PMS). The MTS compound is bioreduced by cells into a colored formazan product and, as measured by the amount of 490 nm absorbance, is directly proportional to the number of living cells in culture. […] The protective effect of these compounds against H2O2 and hydroxyl radical generated by the Fenton reaction were examined.

[3] = system: SH-SY5Y neuroblastoma cells; assay: LIVE/DEAD Viability/Cytotoxicity Assay, hydroxyl radical (Fenton reagent) induced cell death; format: cell-based, human; conditions: 2 hours exposure to Fenton reagent
Procedure: (§1) The ability of the HK series of multifunctional antioxidant compounds to specifically protect against hydroxyl radical-induced cell death was assessed in both SH-SY5Y neuroblastoma cells and ARPE-19 retinal pigmented epithelial cells using the LIVE/DEAD® Viability/Cytotoxicity Assay (Invitrogen Life Sciences, Grand Island, N.Y.). The cells were seeded into 96-well plates and grown in standard media (1:1 EMEM-F12 media containing 10% FBS for the human SH-SY5Y neuroblastoma cells, or DMEM containing 4% FBS for the human ARPE-19 retinal pigmented epithelial cells), at 37° C. under a 5% CO2 atmosphere until 80% confluence was achieved (ca. 24 hr). The media was then removed, and the cells were washed with PBS. Compounds (HK series and JHX series or antioxidant standards (Hydroquinone (HQ), Trolox (T), Vitamin E (VE), Vitamin C (VC)) dissolved in DMSO (10 μL) were again added to the cells, along with the appropriate media without FPS. Following a 1 hr incubation at 37° C. under a 5% CO2 atmosphere, Fenton reagents (Fe^2+ and hydrogen peroxide dissolved in appropriate media without FBS to give a final concentration of 100 μM) were added to each well, and incubation continued. After 2 hr of incubation with Fenton reagent, the media was removed and the cells were washed with PBS. The cells were stained with 100 μL of the LIVE/DEAD reagent containing calcein AM (AM, 8 μM for NB) and ethidium homodimer-1 (EthD-1, 16 μM for NB) for 1 hr at 37° C. The fluorescence of each well was measured using a fluorescent microplate reader at Ex/Em=494/517 nm (Fsam for LIVE Cells) and Ex/Em=528/617 nm (Fsam for DEAD Cells). The fluorescence of control samples was also measured as follows: Fmax for LIVE Cells (The fluorescence at Ex/Em=494/517 nm in live cells samples labeled with AM only); Fmin for LIVE Cells (The fluorescence at Ex/Em=494/517 nm in live cells samples labeled with EthD-1 only); Fmax for DEAD Cells (The fluorescence at Ex/Em=528/617 nm in dead cells samples labeled with EthD-1 only); Fmin for DEAD Cells (The fluorescence at Ex/Em=528/617 nm in dead cells samples labeled with AM only); Blank 494/517 (The fluorescence at Ex/Em=494/517 nm without dye and cells); Blank 528/617 (The fluorescence at Ex/Em=528/617 nm without dye and cells). For the dead cells control, the cells were incubated with 70% of ethanol for 30 min at 37° C. The percentage of live cells was calculated from the fluorescence readings using the equation
(§2) [formula] The percentage of dead cells was calculated from the fluorescence readings using the equation: […]

[4] = system: ARPE-19 retinal pigmented epithelial cells; assay: as above; format: cell-based, human; conditions: ARPE-19, 2 hours exposure to Fenton reagent
Procedure: as §1, §2

diabetic cataract = conditions: diabetic rats; cited from earlier work
radiation cataract = conditions: Long-Evans rats, 15 Gy whole head gamma irradiation; cited from earlier work
[5] = system: light-induced retinal damage; conditions: rats; cited from earlier work
ARPE-19 RPE cells = assay: Mitochondrial viability/toxicity, rhodamine 123 staining with or without MnCl2; format: cell-based, human; conditions: ARPE-19, 1 mM drug, 1 mM MnCl2
[6] = system: SH-SY5Y neuroblastoma cells; assay: as above; format: cell-based, human; conditions: 1 mM drug, 1 mM MnCl2
Procedure: The laser dye rhodamine 123 is shown to be a specific probe for the localization of mitochondria in living cells. Because of its selectivity for mitochondria, this stain can be used to probe alterations in mitochondria induced by drugs. Therefore, studies were conducted to determine whether MFAOs can adversely alter mitochondrial function through their ability chelate transition metals.
Human SH-SY5Y neuroblastoma cells were seeded into 8-well microscope plates (BD Falcon, 800μ-slides), and the cells were incubated in EMEM-F12 media containing 10% FBS at 37° C. under a 5% CO2 atmosphere. Once the cells were approximately 80% confluent in each well, the media was removed and the cells were washed with PBS. The cells were then pre-incubated for 1 hour at 37° C. under a 5% CO2 atmosphere with 200 μL of HBSS medium without FBS containing drug JHX-1, -4, -5, -8, HK-2, -4, -9, -11, or Clioquinol dissolved in DMSO, so that final drug concentrations of 1 mM in 4% DMSO were achieved. Then MnCl2 was added to the appropriate cells groups to give a final concentration of 1 mM, and the groups were cultured for an additional 2 hours. After the […] exposure to manganese, the media was removed and the cells were washed with PBS. The cells were then stained with 100 μL of the fluorescent dye rhodamine 123 (Rh123) (20 μM) and Hoechst 33342 (8 μM) per well at 37° C., 5% CO2 for 30 min. […]

[7] = system: SH-SY5Y neuroblastoma cells; assay: Protective effect against H2O2 and Fenton-generated hydroxyl radical, MTS cell viability; format: cell-based, human; conditions: versus DMSO control
Procedure: as §5

[8] = system: SH-SY5Y neuroblastoma cells; assay: Zinquin analysis of cellular labile zinc after exposure to Aβ1-42/Zn complex; format: cell-based, human; conditions: 10 μM drug
Procedure: (§3) The ability of MFAOs to release zinc from amyloid beta/zinc complex was investigated using […] from American Peptide Company, Inc. (Vista, Calif.). The Aβ1-42/Zn complex was prepared as follow. ZnSO4 solution (200 μM) and Aβ1-42 (200 μM) were mixed together and incubated at 37° C. After 48 hr incubation, the mixture was centrifuged at 14000×g, 3 min to pellet the aggregated Aβ1-42. The aggregated Aβ1-42 was then resuspended in water or 200 μM of drugs. The complex was diluted with Hank's Balanced Saline Solution (HBSS) to give a final 10 μM concentration for each component. This complex was then used in the following studies employing human SH-SY5Y neuroblastoma and ARPE-19 pigmented epithelial cells. The studies were repeated 2-4 times.
(§4) Human SH-SY5Y neuroblastoma cells were seeded into 8-well microscope plates (BD Falcon, 800μ-slides), and the cells were incubated in EMEM-F12 media containing 10% FBS at 37° C. under a 5% CO2 atmosphere. Once the cells were approximately 80% confluent in each well, the media was removed, and the cells were washed with phosphate buffered saline (PBS). […] The zinquin fluorescence was then measured in the fixed cells by confocal fluorescence microscopy using a DAPI (4′,6-diamidino-2-phenylindole) DAPI filter set to assess the cellular compartmentalization of zinc. […]

[9] = system: ARPE-19 retinal pigmented epithelial cells; assay: as above; format: cell-based, human; conditions: ARPE-19, 10 μM drug
Procedure: as §3, §4

| Compound | reduction of superoxide radical [1] | decrease in 24 hr cell viability compared to DMSO treated cells [2] | further results |
| --- | --- | --- | --- |
| O=C1CCC(=O)N1c1ncccn1 [HK-1, 1-(2-pyrimidyl)pyrrolidine-2,5-dione] | did not |  |  |
| O=C1CCC(=O)N1c1ncc(O)cn1 [HK-2, 1-(5-hydroxy-2-pyrimidyl)pyrrolidine-2,5-dione] |  | approximately 20% |  |
| COc1cc(OC)nc(N2C(=O)CCC2=O)n1 [HK-3, 1-(4,6-dimethoxy-2-pyrimidyl)pyrrolidine-2,5-dione] | did not |  |  |
| O=C1CCCC(=O)N1c1ncccn1 [HK-5, 1-(2-pyrimidyl)piperidine-2,6-dione] | did not |  |  |
| O=C1CCCC(=O)N1c1ncc(O)cn1 [HK-6, 1-(5-hydroxy-2-pyrimidyl)piperidine-2,6-dione] |  | approximately 20% |  |
| COc1cc(OC)nc(N2C(=O)CCCC2=O)n1 [HK-7, 1-(4,6-dimethoxy-2-pyrimidyl)piperidine-2,6-dione] | did not |  |  |
| COc1nc(N2C(=O)CCCC2=O)nc(OC)c1O [HK-8, 1-(4,6-dimethoxy-5-hydroxy-2-pyrimidyl)piperidine-2,6-dione] |  | 30% |  |
| c1cnc(N2CCCC2)nc1 [HK-9, 2-(pyrrolidine-1-yl)pyrimidine] | no effect |  | protection against hydroxyl radicals (live/dead cells) [3]: no effect |
| Oc1cnc(N2CCCC2)nc1 [HK-10, 5-hydroxy-2-(pyrrolidine-1-yl)pyrimidine] | demonstrated protection |  | protection against hydroxyl radical (live/dead cells) [4]: dose-dependent protection |
| COc1cc(OC)nc(N2CCCC2)n1 [HK-11, 4,6-dimethoxy-2-(pyrrolidine-1-yl)pyrimidine] | no effect |  | protection against hydroxyl radicals (live/dead cells) [3]: no effect |
| COc1nc(N2CCCC2)nc(OC)c1O [HK-12, 5-hydroxy-4,6-dimethoxy-2-(pyrrolidine-1-yl)pyrimidine] | demonstrated protection |  | protection against hydroxyl radical (live/dead cells) [4]: dose-dependent protection |
| Oc1cnc(N2CCCCC2)nc1 [HK-14, 5-hydroxy-2-(piperidine-1-yl)pyrimidine] | demonstrated protection |  | protection against hydroxyl radical (live/dead cells) [4]: dose-dependent protection |
| COc1nc(N2CCCCC2)nc(OC)c1O [HK-16, 5-hydroxy-4,6-dimethoxy-2-(piperidine-1-yl)pyrimidine] | demonstrated protection |  | protection against hydroxyl radical (live/dead cells) [4]: dose-dependent protection |
| CN(C)S(=O)(=O)N1CC(=O)N(c2ncc(O)cn2)C(=O)C1 [JHX-4] |  |  | progression of cataracts (diabetic cataract): delayed the progression of cataracts; cataract formation after irradiation (radiation cataract): significantly delayed cataract formation; protection against light-induced retinal damage [5]: protects rats against light-induced retinal damage |
| Cc1c(C)c2c(c(C)c1O)CCC(C)(C(=O)O)O2 (centres unmarked) [Trolox, reference compound] |  | approximately 20% |  |
| Oc1c(I)cc(Cl)c2cccnc12 [clioquinol] |  | 50% | loss of rhodamine 123 staining after MnCl2 (ARPE-19 RPE cells): not observed; loss of rhodamine 123 staining after MnCl2 [6]: not observed; cell viability in the Fenton reaction [7]: lower than DMSO control; labile zinc (zinquin staining) in presence of aggregated Aβ1-42/Zn complex [8]: maintain labile zinc levels; labile zinc (zinquin staining) in presence of aggregated Aβ1-42/Zn complex [9]: maintain labile zinc levels |
